For 13 compounds, melting point results are on record in patent US6809094B2, “Pharmaceutical composition for the treatment of CNS and other disorders” (Pfizer Inc, priority 2000, dated 2004).

Structures can show the parent of a compound that is named as a salt.

As usually defined, the melting point is the temperature, or range, at which the solid turns liquid. Regarding `c1ccc2cc3oc(N4CCN5CCC4CC5)nc3cc2c1`, the melting point is greater than 300 °C.

The compound `c1ccc2c(c1)ccc1oc(N3CCN4CCC3CC4)nc12` gave a melting point of 167.2 °C.

Turning to `c1ccc(-c2ccc3nc(N4CCN5CCC4CC5)oc3c2)cc1`, the melting point came out at 281.3 °C.

`O=[N+]([O-])c1ccc2nc(N3CCN4CCC3CC4)oc2c1` gave a melting point of 296.4 °C.

`Ic1ccc2oc(N3CCN4CCC3CC4)nc2c1` showed a melting point greater than 300 °C.

Regarding `Brc1cnc2oc(N3CCN4CCC3CC4)nc2c1`, the melting point is greater than 300 °C.

Compound `c1cncc(-c2ccc3oc(N4CCN5CCC4CC5)nc3c2)c1` gave a melting point greater than 300 °C.

As to `c1ccc2[nH]c(N3CCN4CCC3CC4)nc2c1`, the melting point was greater than 300 °C.

With `O=[N+]([O-])c1cccc2oc(N3CCN4CCC3CC4)nc12`, the melting point stood at 232.1 °C.

`O=[N+]([O-])c1ccc2oc(N3CCN4CCC3CC4)nc2c1` registered a melting point of 240.2 °C.

Turning to `O=[N+]([O-])c1cc2nc(N3CCN4CCC3CC4)oc2cc1Cl`, the melting point stood at 242.3 °C.

As for `c1ccc(-c2ccc3oc(N4CCN5CCC4CC5)nc3c2)cc1`, the melting point was greater than 300 °C.

`O=[N+]([O-])c1cc2oc(N3CCN4CCC3CC4)nc2cc1Cl` (as salt: hydrochloride) had a melting point greater than 300 °C.
